US12365687B2 (Hoffmann-La Roche Inc., priority 2021, dated 2025)

Assays:
[1] = biological target: human GABAA α2β2γ1 receptor (Homo sapiens (Human), UniProt P47869+Q8N1C3); assay: Radioligand binding assay for γ1-containing GABAA subtypes, [3H]RO7239181 competition (α2β2γ1)
[2] = biological target: human GABAA α5β2γ1 receptor (Homo sapiens (Human), UniProt P31644+Q8N1C3); assay: Radioligand binding assay for γ1-containing GABAA subtypes, [3H]RO7239181 competition (α5β2γ1)
[3] = biological target: human GABAA α1β3γ2 receptor (Homo sapiens (Human), UniProt P14867+P18507); assay: Radioligand binding assay for γ2-containing GABAA subtypes, [3H]Flumazenil competition (α1β3γ2); details: for γ2/γ1 Selectivity Ratio: Ki α1β3γ2 (nM)/Ki α2β2γ1 (nM); for LogSel: Log[Ki α1β3γ2 (nM)/Ki α2β2γ1 (nM)]
[4] = biological target: α2β2γ1 GABAA receptor subtype (Homo sapiens (Human), UniProt P47869+Q8N1C3); assay: Two-electrode voltage clamp electrophysiology in Xenopus oocytes expressing GABAA receptors (modulation of GABA EC20 current); format: cell-based; details: for Efficacy (GABA)%: % modulation of GABA EC20 = 100*(Fold increase-1), α2β2γ1 oocytes, compound at approx. 30-fold Ki; for Fold increase h-GABA-A α2β2γ1 oocyte @ 30-fold Ki: Xenopus oocytes expressing α2β2γ1, compound at approx. 30-fold its Ki α2β2γ1, GABA EC20 current
Method in brief: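 Each concentration was tested on ≥3 oocytes held at −80 mV at room temperature, recorded 3-5 days post-injection. A control and a test response to EC20 GABA (1.5 min each) were superimposed and their point-by-point ratio taken. Peak ratio reported as % modulation of GABA EC20 = 100×(fold increase−1).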

[5] = Ki h-GABAA α2β2γ1, [3H]RO7239181 competition binding, human GABAA α2β2γ1
[6] = Ki h-GABAA α2β2γ1, displacement of [3H]RO7239181, membranes of HEK293F cells expressing human receptors, means of two determinations

Molecule `Cc1nc2n(n1)-c1ccc(C(F)(F)F)c(Cl)c1C(c1c(F)cccc1F)=N[C@H]2C` [Example 29, (4S)-7-chloro-6-(2,6-difluorophenyl)-2,4-dimethyl-8-(trifluoromethyl)-4H-[1,2,4]triazolo[1,5-a][1,4]benzodiazepine] has a Ki [1, 5] of 10 nM, a Ki [1, 6] of 10 nM and a Ki [2] of 0.69 nM. For the same molecule, the Ki [3] was 1090 nM, the “γ2/γ1 Selectivity Ratio” value [3] was 109.1 and the LogSel [3] was 2.04. For the same molecule, the “Efficacy (GABA)%” value [4] was 80% and the “Fold increase h-GABA-A α2β2γ1 oocyte @ 30-fold Ki” value [4] was 1.80.
Molecule `C[C@@H]1N=C(c2c(F)cccc2F)c2c(ccc(Cl)c2Cl)-n2nc(C(=O)NCCF)nc21` [Example 30, (4S)-7,8-dichloro-6-(2,6-difluorophenyl)-N-(2-fluoroethyl)-4-methyl-4H-[1,2,4]triazolo[1,5-a][1,4]benzodiazepine-2-carboxamide] has a Ki [1, 5] of 7.2 nM, a Ki [1, 6] of 7.21 nM and a Ki [2] of 1.39 nM. The Ki [3] was 660 nM, the “γ2/γ1 Selectivity Ratio” value [3] was 91.5 and the LogSel [3] was 1.96. For the same molecule, the “Efficacy (GABA)%” value [4] was 78% and the “Fold increase h-GABA-A α2β2γ1 oocyte @ 30-fold Ki” value [4] was 1.78.
`C[C@@H]1N=C(c2c(F)cccc2F)c2c(ccc(Cl)c2Cl)-n2nc(C(=O)N3CC(OC(F)F)C3)nc21` [Example 31, [(4S)-7,8-dichloro-6-(2,6-difluorophenyl)-4-methyl-4H-[1,2,4]triazolo[1,5-a][1,4]benzodiazepin-2-yl]-[3-(difluoromethoxy)azetidin-1-yl]methanone] gave a Ki [1, 5] of 17 nM, a Ki [1, 6] of 17 nM and a Ki [2] of 1.33 nM. For the same molecule, the Ki [3] was 565 nM, the “γ2/γ1 Selectivity Ratio” value [3] was 33.2 and the LogSel [3] was 1.52. For the same molecule, the “Efficacy (GABA)%” value [4] was 66% and the “Fold increase h-GABA-A α2β2γ1 oocyte @ 30-fold Ki” value [4] was 1.66.
In the case of `Cc1nc2n(n1)-c1ccc(Cl)c(Cl)c1C(c1c(F)cccc1F)=NC2` [Example 32, 7,8-dichloro-6-(2,6-difluorophenyl)-2-methyl-4H-[1,2,4]triazolo[1,5-a][1,4]benzodiazepine], the Ki [1, 5] is reported as 2.4 nM, the Ki [1, 6] is reported as 2.44 nM and the Ki [2] is reported as 0.6 nM. The Ki [3] was 163 nM, the “γ2/γ1 Selectivity Ratio” value [3] was 67.1 and the LogSel [3] was 1.83. The “Efficacy (GABA)%” value [4] was 26% and the “Fold increase h-GABA-A α2β2γ1 oocyte @ 30-fold Ki” value [4] was 1.26.
Work on `Fc1cccc(F)c1C1=NCc2nc(C(F)F)nn2-c2ccc(Cl)c(Cl)c21` [Example 33, 7,8-dichloro-2-(difluoromethyl)-6-(2,6-difluorophenyl)-4H-[1,2,4]triazolo[1,5-a][1,4]benzodiazepine] yielded a Ki [1, 5] of 10.8 nM, a Ki [1, 6] of 10.8 nM and a Ki [2] of 0.69 nM. For the same molecule, the Ki [3] was 659 nM, the “γ2/γ1 Selectivity Ratio” value [3] was 61.2 and the LogSel [3] was 1.79. For the same molecule, the “Efficacy (GABA)%” value [4] was 56% and the “Fold increase h-GABA-A α2β2γ1 oocyte @ 30-fold Ki” value [4] was 1.56.
For `[2H]C([2H])([2H])NC(=O)c1nc2n(n1)-c1ccc(C(F)(F)F)c(Cl)c1C(c1c(F)cccc1F)=N[C@H]2C` [Example 34, (4S)-7-chloro-6-(2,6-difluorophenyl)-4-methyl-N-(trideuteriomethyl)-8-(trifluoromethyl)-4H-[1,2,4]triazolo[1,5-a][1,4]benzodiazepine-2-carboxamide], the Ki [1, 5] was 14.3 nM, the Ki [1, 6] was 14.3 nM and the Ki [2] was 2.11 nM. For the same molecule, the Ki [3] was 2180 nM, the “γ2/γ1 Selectivity Ratio” value [3] was 152.4 and the LogSel [3] was 2.18. For the same molecule, the “Efficacy (GABA)%” value [4] was 71% and the “Fold increase h-GABA-A α2β2γ1 oocyte @ 30-fold Ki” value [4] was 1.71.
`C[C@@H]1N=C(c2c(F)cccc2F)c2c(ccc(Cl)c2Cl)-n2nc(C(N)=O)nc21` [Example 35, (4S)-7,8-dichloro-6-(2,6-difluorophenyl)-4-methyl-4H-[1,2,4]triazolo[1,5-a][1,4]benzodiazepine-2-carboxamide] showed a Ki [1, 5] of 6.5 nM, a Ki [1, 6] of 6.53 nM and a Ki [2] of 0.73 nM. The Ki [3] was 778 nM, the “γ2/γ1 Selectivity Ratio” value [3] was 119.1 and the LogSel [3] was 2.08. For the same molecule, the “Efficacy (GABA)%” value [4] was 67% and the “Fold increase h-GABA-A α2β2γ1 oocyte @ 30-fold Ki” value [4] was 1.67.
`COC1CN(C(=O)c2nc3n(n2)-c2ccc(C(F)(F)F)c(Cl)c2C(c2c(F)cccc2F)=NC3)C1` [Example 37, [7-chloro-6-(2,6-difluorophenyl)-8-(trifluoromethyl)-4H-[1,2,4]triazolo[1,5-a][1,4]benzodiazepin-2-yl]-(3-methoxyazetidin-1-yl)methanone] showed a Ki [1, 5] of 4.5 nM, a Ki [1, 6] of 4.49 nM and a Ki [2] of 1.8 nM. The Ki [3] was 772 nM, the “γ2/γ1 Selectivity Ratio” value [3] was 171.8 and the LogSel [3] was 2.24. The “Efficacy (GABA)%” value [4] was 47% and the “Fold increase h-GABA-A α2β2γ1 oocyte @ 30-fold Ki” value [4] was 1.47.
In the case of `COC1CN(C(=O)c2nc3n(n2)-c2ccc(Cl)c(Cl)c2C(c2ncccc2F)=N[C@H]3C)C1` [Example 38, [(4S)-7,8-dichloro-6-(3-fluoro-2-pyridyl)-4-methyl-4H-[1,2,4]triazolo[1,5-a][1,4]benzodiazepin-2-yl]-(3-methoxyazetidin-1-yl)methanone], the Ki [1, 5] is reported as 28.2 nM, the Ki [1, 6] is reported as 28.2 nM and the Ki [2] is reported as 4.46 nM. For the same molecule, the Ki [3] was 2200 nM, the “γ2/γ1 Selectivity Ratio” value [3] was 77.8 and the LogSel [3] was 1.89. The “Efficacy (GABA)%” value [4] was 116% and the “Fold increase h-GABA-A α2β2γ1 oocyte @ 30-fold Ki” value [4] was 2.16.
With `[2H]C([2H])([2H])OC1CN(C(=O)c2nc3n(n2)-c2ccc(Cl)c(Cl)c2C(c2ncccc2F)=N[C@H]3C)C1` [Example 39, [(4S)-7,8-dichloro-6-(3-fluoro-2-pyridyl)-4-methyl-4H-[1,2,4]triazolo[1,5-a][1,4]benzodiazepin-2-yl]-[3-(trideuteriomethoxy)azetidin-1-yl]methanone] the Ki [1, 5] was 17.7 nM, the Ki [1, 6] was 17.7 nM and the Ki [2] was 6.85 nM. For the same molecule, the Ki [3] was 4200 nM, the “γ2/γ1 Selectivity Ratio” value [3] was 237.9 and the LogSel [3] was 2.38. For the same molecule, the “Efficacy (GABA)%” value [4] was 89% and the “Fold increase h-GABA-A α2β2γ1 oocyte @ 30-fold Ki” value [4] was 1.89.
In the case of `C[C@@H]1N=C(c2c(F)cccc2F)c2c(ccc(Cl)c2Cl)-n2nc(C(=O)N3CC(F)C3)nc21` [Example 40, [(4S)-7,8-dichloro-6-(2,6-difluorophenyl)-4-methyl-4H-[1,2,4]triazolo[1,5-a][1,4]benzodiazepin-2-yl]-(3-fluoroazetidin-1-yl)methanone], the Ki [1, 5] is reported as 7.4 nM, the Ki [1, 6] is reported as 7.35 nM and the Ki [2] is reported as 0.9 nM. For the same molecule, the Ki [3] was 672 nM, the “γ2/γ1 Selectivity Ratio” value [3] was 91.4 and the LogSel [3] was 1.96. The “Efficacy (GABA)%” value [4] was 89% and the “Fold increase h-GABA-A α2β2γ1 oocyte @ 30-fold Ki” value [4] was 1.89.
`C[C@@H]1N=C(c2c(F)cccc2F)c2c(ccc(Cl)c2Cl)-n2nc(C(=O)N3CC(C#N)C3)nc21` [Example 41, 1-[(4S)-7,8-dichloro-6-(2,6-difluorophenyl)-4-methyl-4H-[1,2,4]triazolo[1,5-a][1,4]benzodiazepine-2-carbonyl]azetidine-3-carbonitrile] gave a Ki [1, 5] of 3.3 nM, a Ki [1, 6] of 3.28 nM and a Ki [2] of 0.74 nM. For the same molecule, the Ki [3] was 389 nM, the “γ2/γ1 Selectivity Ratio” value [3] was 118.6 and the LogSel [3] was 2.07. The “Efficacy (GABA)%” value [4] was 67% and the “Fold increase h-GABA-A α2β2γ1 oocyte @ 30-fold Ki” value [4] was 1.67.
Work on `C[C@@H]1N=C(c2ncccc2F)c2c(ccc(Cl)c2Cl)-n2nc(C(=O)N3CCC3)nc21` [Example 42, azetidin-1-yl-[(4S)-7,8-dichloro-6-(3-fluoro-2-pyridyl)-4-methyl-4H-[1,2,4]triazolo[1,5-a][1,4]benzodiazepin-2-yl]methanone] yielded a Ki [1, 5] of 50.1 nM, a Ki [1, 6] of 50.1 nM and a Ki [2] of 4.24 nM. For the same molecule, the Ki [3] was 2630 nM, the “γ2/γ1 Selectivity Ratio” value [3] was 52.5 and the LogSel [3] was 1.72. For the same molecule, the “Efficacy (GABA)%” value [4] was 114% and the “Fold increase h-GABA-A α2β2γ1 oocyte @ 30-fold Ki” value [4] was 2.14.
`C[C@@H]1N=C(c2c(F)cccc2F)c2c(ccc(Cl)c2Cl)-n2nc(C(=O)N3CC[C@H](O)C3)nc21` [Example 43, [(4S)-7,8-dichloro-6-(2,6-difluorophenyl)-4-methyl-4H-[1,2,4]triazolo[1,5-a][1,4]benzodiazepin-2-yl]-[(3S)-3-hydroxypyrrolidin-1-yl]methanone] gave a Ki [1, 5] of 4.7 nM, a Ki [1, 6] of 4.75 nM and a Ki [2] of 1.26 nM. The Ki [3] was 837 nM, the “γ2/γ1 Selectivity Ratio” value [3] was 176.3 and the LogSel [3] was 2.25. For the same molecule, the “Efficacy (GABA)%” value [4] was 71% and the “Fold increase h-GABA-A α2β2γ1 oocyte @ 30-fold Ki” value [4] was 1.71.
In the case of `C[C@@H]1N=C(c2ncccc2F)c2c(ccc(Cl)c2Cl)-n2nc(C(=O)N3CC(O)C3)nc21` [Example 44, [(4S)-7,8-dichloro-6-(3-fluoro-2-pyridyl)-4-methyl-4H-[1,2,4]triazolo[1,5-a][1,4]benzodiazepin-2-yl]-(3-hydroxyazetidin-1-yl)methanone], the Ki [1, 5] is reported as 25.9 nM, the Ki [1, 6] is reported as 25.9 nM and the Ki [2] is reported as 9.52 nM. For the same molecule, the Ki [3] was 6620 nM, the “γ2/γ1 Selectivity Ratio” value [3] was 255.1 and the LogSel [3] was 2.41. For the same molecule, the “Efficacy (GABA)%” value [4] was 133% and the “Fold increase h-GABA-A α2β2γ1 oocyte @ 30-fold Ki” value [4] was 2.33.
For `CO[C@H]1CCN(C(=O)c2nc3n(n2)-c2ccc(Cl)c(Cl)c2C(c2c(F)cccc2F)=N[C@H]3C)C1` [Example 45, [(4S)-7,8-dichloro-6-(2,6-difluorophenyl)-4-methyl-4H-[1,2,4]triazolo[1,5-a][1,4]benzodiazepin-2-yl]-[(3S)-3-methoxypyrrolidin-1-yl]methanone], the Ki [1, 5] was 5.4 nM, the Ki [1, 6] was 5.39 nM and the Ki [2] was 2.2 nM. The Ki [3] was 1350 nM, the “γ2/γ1 Selectivity Ratio” value [3] was 250.3 and the LogSel [3] was 2.40. For the same molecule, the “Efficacy (GABA)%” value [4] was 41% and the “Fold increase h-GABA-A α2β2γ1 oocyte @ 30-fold Ki” value [4] was 1.41.
